Laboratory results taken from patent US20240158446A1, “CYCLIC COMPOUND HAVING SELECTIVE INHIBITORY ACTION ON KRAS OVER HRAS AND NRAS” (CHUGAI SEIYAKU KABUSHIKI KAISHA, priority 2021, published 2024).

How the values were obtained:
[1] = biological target: GDP-bound HRAS wild-type protein (Homo sapiens, UniProt P01112); experiment: Binding to HRAS by surface plasmon resonance (SPR), Single Cycle Kinetics; details: SPR KD ratio HRAS/KRAS, class symbols
[2] = biological target: GDP-bound NRAS wild-type protein (Homo sapiens, UniProt P01111); experiment: Binding to NRAS by surface plasmon resonance (SPR), Single Cycle Kinetics; details: SPR KD ratio NRAS/KRAS, class symbols
Sequence of GDP-bound NRAS wild-type protein (P01111 whole entry): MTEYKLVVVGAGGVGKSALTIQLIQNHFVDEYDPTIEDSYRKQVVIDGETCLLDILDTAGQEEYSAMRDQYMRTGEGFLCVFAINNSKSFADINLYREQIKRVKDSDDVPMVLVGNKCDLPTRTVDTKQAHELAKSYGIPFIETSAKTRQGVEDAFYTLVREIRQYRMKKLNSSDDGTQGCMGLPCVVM

Sequence of GDP-bound HRAS wild-type protein (P01112 whole entry): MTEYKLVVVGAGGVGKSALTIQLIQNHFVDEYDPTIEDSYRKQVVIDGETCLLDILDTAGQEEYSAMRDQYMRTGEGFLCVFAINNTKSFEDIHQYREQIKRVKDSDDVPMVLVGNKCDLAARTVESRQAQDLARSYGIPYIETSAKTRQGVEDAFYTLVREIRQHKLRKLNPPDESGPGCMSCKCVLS

Structure (SMILES) | HRAS/KRAS (ratio of KD value with respect to GDP-bound HRAS wild-type protein to KD value with respect to KRAS) [1] | NRAS/KRAS (ratio of KD value with respect to GDP-bound NRAS wild-type protein to KD value with respect to KRAS) [2]
CCCC[C@H]1C(=O)N[C@@H]([C@@H](C)CC)C(=O)N(C)CC(=O)N(C)[C@H]2C/C=C\CCN(C2=O)[C@@H](Cc2ccc(C(F)(F)F)cc2)C(=O)N(C)CC(=O)N[C@@H](CCc2ccc(C(F)(F)F)c(Cl)c2)C(=O)N2C[C@H](OCC)C[C@H]2C(=O)NC2(CCC2)C(=O)N(C)[C@@H](C2CCCC2)C(=O)N(C)[C@H](C(=O)N(C)CC)CC(=O)N1C [PP2841] | A (a compound having 10 or more and less than 20 is denoted as A) | A (a compound having 10 or more and less than 20 is denoted as A)
CCO[C@@H]1C[C@H]2C(=O)NC3(CCC3)C(=O)N(C)[C@@H](C3CCCC3)C(=O)N(C)[C@H](C(=O)N(C)CC)CC(=O)N(C)[C@@H](CC(C)C)C(=O)N[C@@H]([C@@H](C)CC)C(=O)N(C)CC(=O)N(C)[C@H]3C/C=C\CCN(C3=O)[C@@H](Cc3ccc(C(F)(F)F)cc3)C(=O)N(C)CC(=O)N[C@@H](CCc3ccc(Cl)c(Cl)c3)C(=O)N2C1 [PP2845] | A (a compound having 10 or more and less than 20 is denoted as A) | AA (a compound having 20 or more is denoted as AA)
CCO[C@@H]1C[C@H]2C(=O)NC3(CCC3)C(=O)N(C)[C@@H](C3CCCC3)C(=O)N(C)[C@H](C(=O)N(C)CC)CC(=O)N(C)[C@@H](CC(C)C)C(=O)N[C@@H]([C@@H](C)CC)C(=O)N(C)CC(=O)N(C)[C@H]3C/C=C\CCN(C3=O)[C@@H](Cc3ccc(C(F)(F)F)cc3)C(=O)N(C)CC(=O)N[C@@H](CCc3ccc(C(F)(F)F)c(Cl)c3)C(=O)N2C1 [PP2847] | A (a compound having 10 or more and less than 20 is denoted as A) | A (a compound having 10 or more and less than 20 is denoted as A)
CCC[C@H]1C(=O)N[C@@H]([C@@H](C)CC)C(=O)N(C)CC(=O)N(C)[C@H]2C/C=C\CCN(C2=O)[C@@H](Cc2ccc(C(F)(F)F)cc2)C(=O)N(C)CC(=O)N[C@@H](CCc2ccc(C(F)(F)F)c(C3CC3)c2)C(=O)N2C[C@H](OCC)C[C@H]2C(=O)NC2(CC(C)(C)C2)C(=O)N(C)[C@@H](C2CCCC2)C(=O)N(C)[C@H](C(=O)N(C)C)CC(=O)N1C [PP2852] | B (a compound having 3 or more and less than 10 is denoted as B) | B (a compound having 3 or more and less than 10 is denoted as B)
CCC[C@H]1C(=O)N[C@@H]([C@@H](C)CC)C(=O)N(C)CC(=O)N(C)[C@H]2C/C=C\CCN(C2=O)[C@@H](Cc2ccc(C(F)(F)F)cc2)C(=O)N(C)CC(=O)N[C@@H](CCc2ccc(C3CC3)c(OC)c2)C(=O)N2C[C@H](OCC)C[C@H]2C(=O)NC2(CC(C)(C)C2)C(=O)N(C)[C@@H](C2CCCC2)C(=O)N(C)[C@H](C(=O)N(C)C)CC(=O)N1C [PP2853] | A (a compound having 10 or more and less than 20 is denoted as A) | A (a compound having 10 or more and less than 20 is denoted as A)
CCC[C@H]1C(=O)N[C@@H]([C@@H](C)CC)C(=O)N(C)CC(=O)N(C)[C@H]2C/C=C\CCN(C2=O)[C@@H](Cc2ccc(C(F)(F)F)cc2)C(=O)N(C)CC(=O)N[C@@H](CCc2ccc(C3CC3)c(C)c2)C(=O)N2C[C@H](OCC)C[C@H]2C(=O)NC2(CC(C)(C)C2)C(=O)N(C)[C@@H](C2CCCC2)C(=O)N(C)[C@H](C(=O)N(C)C)CC(=O)N1C [PP2855] | A (a compound having 10 or more and less than 20 is denoted as A) | A (a compound having 10 or more and less than 20 is denoted as A)
CCC[C@H]1C(=O)N[C@@H]([C@@H](C)CC)C(=O)N(C)CC(=O)N(C)[C@H]2C/C=C\CCN(C2=O)[C@@H](Cc2ccc(C(F)(F)F)cc2)C(=O)N(C)CC(=O)N[C@@H](CCc2ccc(CC)c(F)c2)C(=O)N2C[C@H](OCC)C[C@H]2C(=O)NC2(CC(C)(C)C2)C(=O)N(C)[C@@H](C2CCCC2)C(=O)N(C)[C@H](C(=O)N(C)C)CC(=O)N1C [PP2856] | A (a compound having 10 or more and less than 20 is denoted as A) | A (a compound having 10 or more and less than 20 is denoted as A)
CCC[C@H]1C(=O)N[C@@H]([C@@H](C)CC)C(=O)N(C)CC(=O)N(C)[C@H]2C/C=C\CCN(C2=O)[C@@H](Cc2ccc(C(F)(F)F)cc2)C(=O)N(C)CC(=O)N[C@@H](CCc2cc(C)c(C(F)F)c(C)c2)C(=O)N2C[C@H](OCC)C[C@H]2C(=O)NC2(CC(C)(C)C2)C(=O)N(C)[C@@H](C2CCCC2)C(=O)N(C)[C@H](C(=O)N(C)C)CC(=O)N1C [PP2857] | A (a compound having 10 or more and less than 20 is denoted as A) | A (a compound having 10 or more and less than 20 is denoted as A)
CCC[C@H]1C(=O)N[C@@H]([C@@H](C)CC)C(=O)N(C)CC(=O)N(C)[C@H]2C/C=C\CCN(C2=O)[C@@H](Cc2ccc(C(F)(F)F)cc2)C(=O)N(C)CC(=O)N[C@@H](CCc2ccc(C3CC3)c(Cl)c2)C(=O)N2C[C@H](OCC)C[C@H]2C(=O)NC2(CC(C)(C)C2)C(=O)N(C)[C@@H](C2CCCC2)C(=O)N(C)[C@H](C(=O)N(C)C)CC(=O)N1C [PP2858] | B (a compound having 3 or more and less than 10 is denoted as B) | A (a compound having 10 or more and less than 20 is denoted as A)
CCC[C@H]1C(=O)N[C@@H]([C@@H](C)CC)C(=O)N(C)CC(=O)N(C)[C@H]2C/C=C\CCN(C2=O)[C@@H](Cc2ccc(C(F)(F)F)cc2)C(=O)N(C)CC(=O)N[C@@H](CCc2cc(Cl)c(C(F)(F)F)c(Cl)c2)C(=O)N2C[C@H](OCC)C[C@H]2C(=O)NC2(CC(C)(C)C2)C(=O)N(C)[C@@H](C2CCCC2)C(=O)N(C)[C@H](C(=O)N(C)C)CC(=O)N1C [PP2859] | A (a compound having 10 or more and less than 20 is denoted as A) | A (a compound having 10 or more and less than 20 is denoted as A)
CCC[C@H]1C(=O)N[C@@H]([C@@H](C)CC)C(=O)N(C)CC(=O)N(C)[C@H]2C/C=C\CCN(C2=O)[C@@H](Cc2ccc(C(F)(F)F)cc2)C(=O)N(C)CC(=O)N[C@@H](CCc2cc(C)c(C(F)F)c(F)c2)C(=O)N2C[C@H](OCC)C[C@H]2C(=O)NC2(CC(C)(C)C2)C(=O)N(C)[C@@H](C2CCCC2)C(=O)N(C)[C@H](C(=O)N(C)C)CC(=O)N1C [PP2860] | A (a compound having 10 or more and less than 20 is denoted as A) | A (a compound having 10 or more and less than 20 is denoted as A)
CCC[C@H]1C(=O)N[C@@H]([C@@H](C)CC)C(=O)N(C)CC(=O)N(C)[C@H]2C/C=C\CCN(C2=O)[C@@H](Cc2ccc(C(F)(F)F)cc2)C(=O)N(C)CC(=O)N[C@@H](CCc2ccc(C(F)(F)F)c(CC)c2)C(=O)N2C[C@H](OCC)C[C@H]2C(=O)NC2(CC(C)(C)C2)C(=O)N(C)[C@@H](C2CCCC2)C(=O)N(C)[C@H](C(=O)N(C)C)CC(=O)N1C [PP2861] | B (a compound having 3 or more and less than 10 is denoted as B) | A (a compound having 10 or more and less than 20 is denoted as A)
CCC[C@H]1C(=O)N[C@@H]([C@@H](C)CC)C(=O)N(C)CC(=O)N(C)[C@H]2C/C=C\CCN(C2=O)[C@@H](Cc2ccc(C(F)(F)F)cc2)C(=O)N(C)CC(=O)N[C@@H](CCc2cc(F)c(CC)c(OC)c2)C(=O)N2C[C@H](OCC)C[C@H]2C(=O)NC2(CC(C)(C)C2)C(=O)N(C)[C@@H](C2CCCC2)C(=O)N(C)[C@H](C(=O)N(C)C)CC(=O)N1C [PP2862] | B (a compound having 3 or more and less than 10 is denoted as B) | A (a compound having 10 or more and less than 20 is denoted as A)
CCC[C@H]1C(=O)N[C@@H]([C@@H](C)CC)C(=O)N(C)CC(=O)N(C)[C@H]2C/C=C\CCN(C2=O)[C@@H](Cc2ccc(C(F)(F)F)cc2)C(=O)N(C)CC(=O)N[C@@H](CCc2cc(C)c(C3CC3)c(C)c2)C(=O)N2C[C@H](OCC)C[C@H]2C(=O)NC2(CC(C)(C)C2)C(=O)N(C)[C@@H](C2CCCC2)C(=O)N(C)[C@H](C(=O)N(C)C)CC(=O)N1C [PP2863] | A (a compound having 10 or more and less than 20 is denoted as A) | A (a compound having 10 or more and less than 20 is denoted as A)
CCC[C@H]1C(=O)N[C@@H]([C@@H](C)CC)C(=O)N(C)CC(=O)N(C)[C@H]2C/C=C\CCN(C2=O)[C@@H](Cc2ccc(C(F)(F)F)cc2)C(=O)N(C)CC(=O)N[C@@H](CCc2cc(F)c(Cl)c(OC)c2)C(=O)N2C[C@H](OCC)C[C@H]2C(=O)NC2(CC(C)(C)C2)C(=O)N(C)[C@@H](C2CCCC2)C(=O)N(C)[C@H](C(=O)N(C)C)CC(=O)N1C [PP2864] | A (a compound having 10 or more and less than 20 is denoted as A) | A (a compound having 10 or more and less than 20 is denoted as A)
